What was measured:
Type in all cases: cell-based
caspase-3 = test: Western blotting of caspase-3 activation (apoptosis inhibitory effect) in okadaic acid-treated human neuroblasts; conditions: SH-SY5Y cells, 100 nM okadaic acid, 0.3 mM S1PC, 6 hours, FIG. 3
Description: (§1) Human neuroblastoma cell line SH-SY5Y cells were cultured in a Dulbecco's modified Eagle medium supplemented with 10% fetal bovine serum, and antibiotic penicillin-streptomycin solution, and the cultured cells were used as cells for evaluation test.
100 nM okadaic acid and 0.3 mM S1PC were added to the human neuroblasts for evaluation test prepared in (2) above, and the cells were cultured for 6 hours. A cell extract was prepared in the same manner as in (a) above, and analyzed by western blotting in accordance with a usual method. An anti-caspase-3 antibody (manufactured by Cell Signaling Technology, Inc.) and an anti-β-actin antibody (manufactured by Wako Pure Chemical Industries, Ltd.) were used as antibodies.

tau protein = test: Western blotting of tau protein (tau protein-removing effect) in okadaic acid-treated human neuroblasts; conditions: SH-SY5Y cells
Description: as §1
(§2) Okadaic acid (at a concentration of 100 nM) and S1PC (at concentrations of 0.03, 0.1, and 0.3 mM) were added to the human neuroblasts for evaluation test prepared in (2) above, and the cells were cultured for 6 hours. After culturing, the cultured cells were washed with a phosphate buffer, and then lysed with RIPA cell lysis buffer (manufactured by Millipore Corporation) diluted 10-fold with purified water containing a protease/phosphatase cocktail inhibitor (manufactured by Thermo Fisher Scientific K.K.). After that, centrifugation was conducted (at 10000 rpm, for 10 minutes, at 4° C.), and the supernatant was used as a cell extract. This cell extract was used to conduct analysis by western blotting in accordance with a usual method. An anti-Atg7 antibody (manufactured by Cell Signaling Technology, Inc.), an anti-4T-tau antibody (manufactured by Wako Pure Chemical Industries, Ltd.), and an anti-β-actin antibody (manufactured by Wako Pure Chemical Industries, Ltd.) were used as antibodies.
10 nM okadaic acid, 0.3 mM S1PC, and 10 mM autophagy inhibitor (3-methyladenine) were added to the human neuroblasts for evaluation test prepared in (2) above, and the cells were cultured for 24 hours. A cell extract was prepared in the same manner as in (a) above, and analyzed by western blotting in accordance with a usual method. An anti-Atg7 antibody (manufactured by Cell Signaling Technology, Inc.), an anti-4T-tau antibody (manufactured by Wako Pure Chemical Industries, Ltd.), and an anti-β-actin antibody (manufactured by Wako Pure Chemical Industries, Ltd.) were used as antibodies.
50 nM okadaic acid and 0.3 mM S1PC or SAC were added to the human neuroblasts for evaluation test prepared in (2) above, and the cells were cultured for 6 hours. A cell extract was prepared in the same manner as in (a) above, and analyzed by western blotting in accordance with a usual method. An anti-4T-tau antibody (manufactured by Wako Pure Chemical Industries, Ltd.) and an anti-β-actin antibody (manufactured by Wako Pure Chemical Industries, Ltd.) were used as antibodies.

LC3B-II = test: Western blotting of LC3B-II expression in rotenone-treated human neuroblasts; conditions: SH-SY5Y cells, 10 μM rotenone, 0.3 mM S1PC, 1 mM 3-methyladenine, 3 hours, FIG. 5
Description: as §1
(§3) 10 μM rotenone, 0.3 mM S1PC, and 1 mM autophagy inhibitor (3-methyladenine) were added to the human neuroblasts for evaluation test prepared in (2) above, and the cells were cultured for 3 hours. A cell extract was prepared in the same manner as in (a) above, and analyzed by western blotting in accordance with a usual method. An anti-α-synuclein antibody, an anti-LC3B antibody (manufactured by Cell Signaling Technology, Inc.), and an anti-β-actin antibody (manufactured by MEDICAL & BIOLOGICAL LABORATORIES CO., LTD.) were used as antibodies.

α-synuclein protein = test: Western blotting of α-synuclein protein (α-synuclein protein-removing effect) in rotenone-treated human neuroblasts; conditions: SH-SY5Y cells, 3 hours
Description: as §1, §3
as §3, with “500 nM” for “10 μM”, “rotenone, and” for “rotenone,”, “S1PC or SAC” for “S1PC, and 1 mM autophagy inhibitor (3-methyladenine)”, “(2),” for “(2) above,”, “used. […] Therefore, S1PC is considered to be useful for Parkinson's disease, for example, accompanied by α-synuclein protein accumulation.” for “used as antibodies.”

Atg7 = test: Western blotting of Atg7 expression (autophagy activation) in okadaic acid-treated human neuroblasts; conditions: SH-SY5Y cells
Description: as §1
as §2, with “An anti-Atg7 antibody (manufactured by Cell Signaling Technology, Inc.), an anti-4T-tau antibody (manufactured by Wako Pure Chemical Industries, Ltd.), and an anti-β-actin antibody (manufactured by Wako Pure Chemical Industries, Ltd.) were used as antibodies.” left out
10 nM okadaic acid, 0.3 mM S1PC, and 10 mM autophagy inhibitor (3-methyladenine) were added to the human neuroblasts for evaluation test prepared in (2) above, and the cells were cultured for 24 hours. A cell extract was prepared in the same manner as in (a) above, and analyzed by western blotting in accordance with a usual method. […]

[1] = 10 nM okadaic acid, 0.3 mM S1PC, 10 mM 3-methyladenine, 24 hours, FIG. 2
[2] = okadaic acid 100 nM, S1PC 0.03, 0.1 and 0.3 mM, 6 hours, FIG. 1

SMILES: CC=CSCC(N)C(=O)O (centres unmarked) [S1PC, S-1-propenylcysteine]
- activation of caspase-3 (caspase-3): suppressed
- tau protein-removing effect with autophagy inhibitor (tau protein; [1]): suppressed by adding the autophagy inhibitor
- tau protein-removing effect compared with SAC (tau protein; 50 nM okadaic acid, 0.3 mM S1PC or SAC, 6 hours, FIG. 4): superior to SAC
- tau protein (tau protein; 50 nM okadaic acid, 0.3 mM, 6 hours, FIG. 4): decreased
- removal of tau proteins (tau protein; [2]): promoted removal
- LC3B-II expression-increasing effect with autophagy inhibitor (LC3B-II): suppressed by adding the autophagy inhibitor
- α-synuclein protein-removing effect compared with SAC (α-synuclein protein; 500 nM rotenone, 0.3 mM S1PC or SAC, FIG. 6): superior to SAC
- α-synuclein protein (α-synuclein protein; 500 nM rotenone, 0.3 mM, FIG. 6): decreased
- α-synuclein protein-removing effect with autophagy inhibitor (α-synuclein protein; 10 μM rotenone, 0.3 mM S1PC, 1 mM 3-methyladenine, FIG. 5): suppressed by adding the autophagy inhibitor
- Atg7 expression-increasing effect with autophagy inhibitor (Atg7; [1]): suppressed by adding the autophagy inhibitor
- Atg7 expression (Atg7; [2]): increased

— patent publication US12324795B2, “Autophagy activating agent” (WAKUNAGA PHARMACEUTICAL CO., LTD., priority 2018, dated 2025)
